According to PubChem BioAssay (NCI):
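Dose response: 5 concentrations. Exposure: 48 h. Format: 96-well plates. Endpoint: linear interpolation; highest concentration if not reached. Here, GI50 denotes the concentration required for 50% inhibition of growth. TGI marks complete inhibition of growth.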

How the values were obtained:
Assay in all cases: growth of human tumour cells (NCI), 48 h
[1] = test system: HCT-15 colon
[2] = test system: HCC-2998 colon
[3] = test system: MOLT-4 leukemia
[4] = test system: U251 CNS
[5] = test system: TK-10 renal
[6] = test system: ACHN renal
[7] = test system: NCI-H226 lung
[8] = test system: SN12C renal
[9] = test system: MDA-MB-231 breast
[10] = test system: SW-620 colon
[11] = test system: SF-268 CNS
[12] = test system: M14 melanoma
[13] = test system: UO-31 renal
[14] = test system: SK-OV-3 ovarian
[15] = test system: IGROV1 ovarian
[16] = test system: T-47D breast
[17] = test system: NCI-H522 lung
[18] = test system: CCRF-CEM leukemia
[19] = test system: HL-60(TB) leukemia
[20] = test system: UACC-62 melanoma
[21] = test system: OVCAR-5 ovarian
[22] = test system: RPMI-8226 leukemia
[23] = test system: CAKI-1 renal
[24] = test system: SF-539 CNS
[25] = test system: NCI/ADR-RES ovarian
[26] = test system: SNB-75 CNS
[27] = test system: RXF 393 renal
[28] = test system: K-562 leukemia
[29] = test system: SK-MEL-5 melanoma
[30] = test system: MDA-MB-468 breast
[31] = test system: MDA-MB-435
[32] = test system: HS 578T breast
[33] = test system: NCI-H23 lung
[34] = test system: PC-3 prostate
[35] = test system: SK-MEL-28 melanoma
[36] = test system: DU-145 prostate
[37] = test system: HOP-62 NSCLC
[38] = test system: OVCAR-3 ovarian
[39] = test system: SNB-19 CNS
[40] = test system: SR leukemia
[41] = test system: HOP-92 NSCLC
[42] = test system: UACC-257 melanoma
[43] = test system: KM12 colon
[44] = test system: SK-MEL-2 melanoma
[45] = test system: NCI-H460 lung
[46] = test system: A498 renal
[47] = test system: OVCAR-8 ovarian
[48] = test system: LOX IMVI melanoma
[49] = test system: BT-549 breast
[50] = test system: HCT-116 colon
[51] = test system: MCF7 breast
[52] = test system: SF-295 CNS
[53] = test system: A549 NSCLC
[54] = test system: OVCAR-4 ovarian
[55] = test system: MALME-3M melanoma
[56] = test system: EKVX NSCLC

With `CCN1CCN(Cc2ccc(C(=O)Nc3cccc(Nc4ccc5c(OC)cccc5n4)c3)cc2C(F)(F)F)CC1` the GI50 [1] was 1580 nM, the TGI [1] was 3290 nM and the GI50 [2] was 1590 nM. For the same molecule, the TGI [2] was 2890 nM, the GI50 [3] was 1230 nM and the TGI [3] was 5050 nM. It also gave a GI50 [4] of 1690 nM, a TGI [4] of 3470 nM and a GI50 [5] of 8670 nM. It also gave a TGI [5] of 22100 nM, a GI50 [6] of 1850 nM and a TGI [6] of 4320 nM. The GI50 [7] was 5520 nM, the TGI [7] was 18300 nM and the GI50 [8] was 3620 nM. The TGI [8] was 14800 nM, the GI50 [9] was 1540 nM and the TGI [9] was 3050 nM. For the same molecule, the GI50 [10] was 1450 nM, the TGI [10] was 2730 nM and the GI50 [11] was 2170 nM. The TGI [11] was 9910 nM, the GI50 [12] was 1470 nM and the TGI [12] was 2720 nM. It also gave a GI50 [13] of 2330 nM, a TGI [13] of 9270 nM and a GI50 [14] of 12600 nM. The TGI [14] was 27200 nM, the GI50 [15] was 3090 nM and the TGI [15] was 11200 nM. The GI50 [16] was 2110 nM, the TGI [16] was 8140 nM and the GI50 [17] was 1700 nM. For the same molecule, the TGI [17] was 3300 nM, the GI50 [18] was 1970 nM and the TGI [18] was 5380 nM. The GI50 [19] was 1570 nM, the TGI [19] was 4840 nM and the GI50 [20] was 1530 nM. It also gave a TGI [20] of 2830 nM, a GI50 [21] of 3280 nM and a TGI [21] of 12700 nM. The GI50 [22] was 2240 nM, the TGI [22] was 6670 nM and the GI50 [23] was 1460 nM. The TGI [23] was 3190 nM, the GI50 [24] was 1370 nM and the TGI [24] was 2540 nM. It also gave a GI50 [25] of 2280 nM, a TGI [25] of 9030 nM and a GI50 [26] of 1200 nM. It also gave a TGI [26] of 8390 nM, a GI50 [27] of 1630 nM and a TGI [27] of 5000 nM. The GI50 [28] was 2110 nM, the TGI [28] was 86800 nM and the GI50 [29] was 1450 nM. For the same molecule, the TGI [29] was 2780 nM, the GI50 [30] was 1600 nM and the TGI [30] was 4530 nM. The GI50 [31] was 1360 nM, the TGI [31] was 2820 nM and the GI50 [32] was 1960 nM. For the same molecule, the TGI [32] was 6980 nM, the GI50 [33] was 2370 nM and the TGI [33] was 7030 nM. The GI50 [34] was 2140 nM, the TGI [34] was 6260 nM and the GI50 [35] was 1560 nM. For the same molecule, the TGI [35] was 2870 nM, the GI50 [36] was 2550 nM and the TGI [36] was 9250 nM. For the same molecule, the GI50 [37] was 3670 nM, the TGI [37] was 17600 nM and the GI50 [38] was 1800 nM. The TGI [38] was 4580 nM, the GI50 [39] was 1650 nM and the TGI [39] was 3620 nM. It also gave a GI50 [40] of 1870 nM, a TGI [40] of 4670 nM and a GI50 [41] of 1580 nM. The TGI [41] was 5270 nM, the GI50 [42] was 1510 nM and the TGI [42] was 2850 nM. The GI50 [43] was 2200 nM, the TGI [43] was 5620 nM and the GI50 [44] was 10700 nM. It also gave a TGI [44] of 23800 nM, a GI50 [45] of 1470 nM and a TGI [45] of 2800 nM. For the same molecule, the GI50 [46] was 11800 nM, the TGI [46] was 24900 nM and the GI50 [47] was 6780 nM. For the same molecule, the TGI [47] was 18400 nM, the GI50 [48] was 1450 nM and the TGI [48] was 2650 nM. The GI50 [49] was 5350 nM, the TGI [49] was 17400 nM and the GI50 [50] was 1450 nM. The TGI [50] was 2640 nM, the GI50 [51] was 1500 nM and the TGI [51] was 3500 nM. For the same molecule, the GI50 [52] was 1520 nM, the TGI [52] was 2970 nM and the GI50 [53] was 2500 nM. The TGI [53] was 11400 nM, the GI50 [54] was 2890 nM and the TGI [54] was 13000 nM. For the same molecule, the GI50 [55] was 1440 nM, the TGI [55] was 2630 nM and the GI50 [56] was 4060 nM. For the same molecule, the TGI [56] was 15300 nM.
